≈ marks a conversion by molar mass, not a printed value. Where “and” joins values, the source holds several entries; their conditions need not be identical. Identical values can stand only once. A value given as a limit tells only on which side of the number the result lay.

Some test systems named below: Escherichia coli; Staphylococcus aureus; Escherichia coli LEC001; Klebsiella pneumoniae M6; Escherichia coli HB101; Helicobacter pylori; Bacillus megaterium; Listeria ivanovii; Saccharomyces cerevisiae; Escherichia coli ML-35p; Enterococcus faecalis; Escherichia coli W3110.
Holding throughout (assay): ≥ marks a high value that may be exact or a test limit, other limits are often not marked, values filed in µg/mL are converted to µM
The test system of test [1] is Staphylococcus aureus ATCC 9144.
Test [2] deals with Pseudomonas aeruginosa NCTC 13437.
Test [3] deals with Klebsiella pneumoniae NCTC 13368.
For test [4], the system named is Acinetobacter baumannii AYE.
The test system of test [5] is Escherichia coli NCTC 12923.
The test system of test [6] is Staphylococcus aureus NCTC 13616.
The test system of test [7] is Pseudomonas aeruginosa PAO1.
The subject of test [8] is Acinetobacter baumannii ATCC 17978.
In test [9] the test system is Staphylococcus aureus USA 300.
Test [10] has as its system Vibrio anguillarum FT1801.
The subject of test [11] is Escherichia coli ATCC 25922.
In test [12] the test system is Pseudomonas aeruginosa ATCC 27853.
Test [13] concerns Corynebacterium glutamicum ATCC 13032.
The test system of test [14] is Salmonella enterica subsp. enterica serovar Enteritidis.
Test [15] concerns Legionella feeleii ATCC 35072.
For test [16], the system named is Staphylococcus aureus ATCC 25923.
Test [17] deals with Candida albicans ATCC 90028.
The test system of test [18] is Legionella pneumophila ATCC 33155.
Test [19] concerns Legionella pneumophila Paris.
Test [20] deals with Staphylococcus aureus ATCC 43300.
Test [21] deals with Escherichia coli ATCC 35218.
Test [22] has as its system Staphylococcus aureus ST1065.
Test [23] concerns Streptococcus pyogenes ATCC 19615.
Test [24] deals with Enterococcus faecalis ATCC 29212.
The test system of test [25] is Klebsiella pneumoniae ATCC 13883.
The test system of test [26] is Legionella longbeachae ATCC 33484.
Test [27] has as its system Acinetobacter baumannii ATCC 19606.
In test [28] the test system is Staphylococcus aureus ATCC BAA-44.
Test [29] relates to Pseudomonas aeruginosa PAK.
Test [30] concerns Streptococcus mutans UA159.
Test [31] relates to Streptococcus sobrinus ATCC 33478.
For test [32], the system named is Streptococcus sanguinis NY101.

Turning to `CC[C@H](C)[C@H](NC(=O)[C@H](CCCCN)NC(=O)[C@H](CC(C)C)NC(=O)[C@H](C)NC(=O)[C@H](C)NC(=O)[C@H](CCCCN)NC(=O)[C@H](CC(C)C)NC(=O)[C@H](C)NC(=O)[C@H](CCCCN)NC(=O)CNC(=O)[C@H](CC(C)C)NC(=O)[C@H](Cc1ccccc1)NC(=O)[C@H](CO)NC(=O)CNC(=O)[C@H](Cc1ccccc1)NC(=O)CN)C(=O)NCC(=O)N[C@@H](C)C(=O)N[C@@H](CC(N)=O)C(=O)N[C@H](C(=O)N[C@@H](CC(C)C)C(=O)NCC(=O)NCC(=O)N[C@@H](C)C(=O)N1CCC[C@H]1C(=O)N[C@@H](CCC(N)=O)C(=O)N[C@@H](CCC(N)=O)C(=O)O)C(C)C` [GFGSFLGKALKAALKIGANVLGGAPQQ], the MIC in [1] is 1.53 µM (≈ 4 µg/mL); in test [2] it was 24.5 µM (≈ 64 µg/mL); with Escherichia coli, 12.5 µM (≈ 32.7 µg/mL); in test [3] it was 12.2 µM (≈ 32 µg/mL); in test [4], 3.06 µM (≈ 8 µg/mL); with Staphylococcus aureus, 6 µM (≈ 15.7 µg/mL). Moreover, the minimal inhibitory concentration (MIC) in [5] is 3.06 µM (≈ 8 µg/mL); against Escherichia coli LEC001, 3.06 µM (≈ 8 µg/mL); in [6], 1.53 µM (≈ 4 µg/mL); in test [7], more than 49 µM; in the test with Klebsiella pneumoniae M6, 12.2 µM (≈ 32 µg/mL); in test [8], 1.53 µM (≈ 4 µg/mL). The molecule further registered an MIC in [9] of 3.06 µM (≈ 8 µg/mL).
Take `CC[C@H](C)[C@H](NC(=O)[C@@H]1CCCN1C(=O)[C@H](CCCCN)NC(=O)[C@@H]1CCCN1C(=O)[C@H](CCCN=C(N)N)NC(=O)CNC(=O)[C@@H]1CCCN1C(=O)[C@H](Cc1ccccc1)NC(=O)[C@@H]1CCCN1C(=O)[C@H](CCCN=C(N)N)NC(=O)[C@@H]1CCCN1C(=O)[C@H](CCCN=C(N)N)NC(=O)CNC(=O)[C@@H]1CCCN1C(=O)[C@H](CO)NC(=O)[C@@H]1CCCN1C(=O)[C@H](Cc1c[nH]c2ccccc12)NC(=O)[C@H](CCCN=C(N)N)NC(=O)[C@@H](N)CO)C(=O)N[C@@H](Cc1ccccc1)C(=O)N[C@@H](CCCN=C(N)N)C(=O)N1CCC[C@H]1C(=O)N[C@@H](CCCN=C(N)N)C(=O)N1CCC[C@H]1C(=O)N[C@H]1CSSC[C@@H](C(=O)N[C@@H](CC(=O)O)C(=O)N[C@@H](CCCN=C(N)N)C(=O)N[C@@H](Cc2c[nH]c3ccccc23)C(=O)O)NC(=O)[C@@H]2CCCN2C(=O)[C@@H]2CSSC[C@H](NC(=O)[C@H](CC(N)=O)NC1=O)C(=O)N[C@@H](Cc1ccc(O)cc1)C(=O)N[C@@H](C)C(=O)N1CCC[C@H]1C(=O)N1CCC[C@H]1C(=O)N2` [SRWPSPGRPRPFPGRPKPIFRPRPCNCYAPPCPCDRW]: the MIC in [10] was 6.3 µM (≈ 27.4 µg/mL); in the test on Escherichia coli HB101 it was 6.25 µM (≈ 27.2 µg/mL); in test [1], not below 50 µM; in test [11], 12.5 µM (≈ 54.3 µg/mL); in [12], 6.3 µM (≈ 27.4 µg/mL); in test [13] it was 0.8 µM (≈ 3.48 µg/mL).
`CC[C@H](C)[C@H](NC(=O)CNC(=O)[C@H](CO)NC(=O)[C@H](CC(C)C)NC(=O)[C@@H](N)Cc1ccccc1)C(=O)N[C@H](C(=O)NCC(=O)N[C@@H](CCSC)C(=O)N[C@@H](CC(C)C)C(=O)NCC(=O)N[C@@H](CCCCN)C(=O)N[C@@H](CC(C)C)C(=O)N[C@@H](Cc1ccccc1)C(=O)O)C(C)C` [FLSGIVGMLGKLF]: the MIC in test [14] is 25 µM (≈ 34.5 µg/mL); in [15], 1.56 µM (≈ 2.16 µg/mL); in test [16], 3 µM (≈ 4.15 µg/mL); in test [11], 10 µM (≈ 13.8 µg/mL); in [17] it was 16 µM and 25 µM; in test [18], 3.12 µM (≈ 4.31 µg/mL). The MIC was found to be 17.7 µM (≈ 24.4 µg/mL) in the test on Helicobacter pylori; 1.56 µM (≈ 2.16 µg/mL) in test [19]; 6 µM (≈ 8.29 µg/mL) in test [20]; 10 µM (≈ 13.8 µg/mL) in test [21]; 6 µM (≈ 8.29 µg/mL) in test [22]; 2 µM (≈ 2.76 µg/mL) in the test with Bacillus megaterium. Also, the minimal inhibitory concentration (MIC) in test [23] was 6 µM (≈ 8.29 µg/mL); in [24] it was 11 µM (≈ 15.1 µg/mL); in the test on Listeria ivanovii, 6 µM (≈ 8.29 µg/mL); in [12] it was 31 µM and 50 µM; in test [25], 12 µM (≈ 16.6 µg/mL); in [26], 1.56 µM (≈ 2.16 µg/mL). The MIC is 6 µM (≈ 8.29 µg/mL) in test [27]; 8 µM and 12 µM in the test with Saccharomyces cerevisiae; 6 µM (≈ 8.29 µg/mL) in [28]; 12 µM (≈ 16.6 µg/mL) in the test on Escherichia coli ML-35p.
As to `CC[C@H](C)[C@H](NC(=O)[C@H](Cc1ccccc1)NC(=O)[C@H](Cc1cnc[nH]1)NC(=O)[C@H](CCCCN)NC(=O)[C@@H](NC(=O)[C@H](Cc1ccccc1)NC(=O)[C@@H](NC(=O)[C@H](C)NC(=O)[C@H](CO)NC(=O)[C@H](Cc1ccccc1)NC(=O)[C@H](Cc1cnc[nH]1)NC(=O)[C@H](CC(C)C)NC(=O)[C@H](Cc1cnc[nH]1)NC(=O)[C@H](Cc1ccccc1)NC(=O)[C@H](Cc1cnc[nH]1)NC(=O)[C@@H](N)Cc1ccccc1)[C@@H](C)O)[C@@H](C)CC)C(=O)N[C@@H](Cc1cnc[nH]1)C(=O)N[C@@H](CCCN=C(N)N)C(=O)N[C@@H](Cc1ccccc1)C(N)=O` [FHFHLHFSATFIKHFIHRF], the minimal inhibitory concentration (MIC) against Enterococcus faecalis is 25.3 µM (≈ 62.5 µg/mL); against Escherichia coli W3110 it was not below 50.6 µM; in test [29], not below 50.6 µM; in test [30], 6.48 µM (≈ 16 µg/mL); in the test with Staphylococcus aureus, 50.6 µM (≈ 125 µg/mL); in test [31], not below 101 µM. For the same molecule, the MIC in [32] was 25.3 µM (≈ 62.5 µg/mL).

By MIC is commonly meant the smallest concentration in the dilution series that meets the test's criterion for growth inhibition.
